{
  "source": "patent US7638505B2",
  "about": "“Organophosphoric derivatives useful as anti-parasitic agents” (priority 2005, dated 2009)",
  "key": {"[1]": {"system": "acute, uncomplicated Plasmodium falciparum malaria", "details": "clinical trials, Gabon and Thailand; cited from earlier work"}, "[2]": {"system": "Plasmodium falciparum strain 3D7", "assay": "in vitro anti-malarial activity, [3H]hypoxanthine incorporation, strain 3D7", "type": "cell-based", "details": "P. falciparum strain 3D7, intraerythrocytic stages", "protocol": "(§1) The in vitro anti-malarial activity of some of the compounds prepared in example 1 was determined as follows. Intraerythrocytic stages of the Plasmodium falciparum strains 3D7 and Dd2 were respectively incubated with serial dilutions of the relevant compounds and the viability of the parasites was assessed by their ability to incorporate [^3H]hypoxanthine into DNA. Inhibition results were expressed as IC50."}, "[3]": {"system": "Plasmodium falciparum strain Dd2", "assay": "in vitro anti-malarial activity, [3H]hypoxanthine incorporation, strain Dd2", "type": "cell-based", "details": "for activity in the Dd2 cell line with respect to the reference compounds fosmidomycin and FR900098: same conditions, similar experimental setup", "protocol": "as §1"}, "[4]": {"details": "in vivo; cited from earlier work"}, "[5]": {"system": "Plasmodium falciparum strain Dd2", "details": "P. falciparum Dd2, WO 2005/048715; cited from earlier work"}, "Plasmodium vinckei": {"system": "Plasmodium vinckei", "details": "cited from earlier work"}, "Plasmodium falciparum": {"system": "Plasmodium falciparum", "details": "cited from earlier work"}, "[6]": {"details": "Plasmodium falciparum, DD2, read-out: IC50 (μM) Dd2"}},
  "note": "Read-outs that look alike come from different tables or passages of the source.",
  "data": [
    {"smiles": "O=CN(O)CCCP(=O)(O)O", "note": "[fosmidomycin]", "values": [
      {"measurement": "treatment of patients suffering from acute, uncomplicated Plasmodium falciparum malaria", "setting": "[1]", "value": "proved to be efficient"},
      {"measurement": "IC50", "setting": "[2]; Plasmodium falciparum", "value": 1.1, "unit": "µM"},
      {"measurement": "IC50", "setting": "[3]; [6]", "value": 0.36, "unit": "µM"},
      {"measurement": "plasma half-life", "setting": "[4]", "value": "short"},
      {"measurement": "resorption rate", "setting": "[4]", "value": "moderate"}
    ]},
    {"smiles": "CC(=O)N(O)CCC(c1ccc(Cl)c(Cl)c1)P(=O)(O)O", "note": "(centres unmarked) [Compound 2e, 3-(N-hydroxyacetamido)-1-(3,4-dichlorophenyl)propylphosphonic acid]", "values": [
      {"measurement": "IC50", "setting": "[2]; Plasmodium falciparum", "value": 0.25, "unit": "µM"},
      {"measurement": "IC50", "setting": "[3]; [6]", "value": 0.09, "unit": "µM"}
    ]},
    {"smiles": "CC(=O)N(O)CCC(c1ccc(Cl)cc1)P(=O)(O)O", "note": "(centres unmarked) [Compound 2d, 3-(N-hydroxyacetamido)-1-(4-chlorophenyl)propylphosphonic acid]", "values": [
      {"measurement": "IC50", "setting": "[2]; Plasmodium falciparum", "value": 0.35, "unit": "µM"},
      {"measurement": "IC50", "setting": "[3]; [6]", "value": 0.095, "unit": "µM"}
    ]},
    {"smiles": "CC(=O)N(O)CCC(c1ccccc1)P(=O)(O)O.OCCNCCO", "note": "(stereo not drawn) [α-phenyl-FR900098 diethanolammonium salt]", "values": [
      {"measurement": "IC50 value relative to FR900098", "setting": "[5]", "value": "higher than FR900098"}
    ]},
    {"smiles": "COc1ccc(C(CCN(O)C=O)P(=O)(O)O)cc1", "note": "(centres unmarked) [Compound 1c, 3-(N-hydroxyformamido)-1-(4-methoxyphenyl)propylphosphonic acid]", "values": [
      {"measurement": "IC50", "setting": "[2]; Plasmodium falciparum", "value": 0.36, "unit": "µM"},
      {"measurement": "IC50", "setting": "[3]; [6]", "value": 0.2, "unit": "µM"}
    ]},
    {"smiles": "O=CN(O)CCC(c1ccccc1)P(=O)(O)O.OCCNCCO", "note": "(stereo not drawn) [α-phenyl-fosmidomycin diethanolammonium salt]", "values": [
      {"measurement": "IC50 value relative to fosmidomycin (times less)", "setting": "[5]", "value": 4.5, "unit": "times"}
    ]},
    {"smiles": "CC(=O)N(O)CCC(c1ccc(C#N)cc1)P(=O)(O)O.N.N", "note": "(centres unmarked) [Compound 104b, Bisammonium 3-[N-acetyl. N-(hydroxy)amino]-1-(4-cyanophenyl)-propylphosphonate]", "values": [
      {"measurement": "activity in the Dd2 cell line with respect to the reference compounds fosmidomycin and FR900098", "setting": "[3]", "value": "substantial higher activity"}
    ]},
    {"smiles": "O=CN(O)CCC(c1ccc(Cl)c(Cl)c1)P(=O)(O)O", "note": "(centres unmarked) [Compound 1e, 3-(N-hydroxyformamido)-1-(3,4-dichlorophenyl)propylphosphonic acid]", "values": [
      {"measurement": "IC50", "setting": "[2]; Plasmodium falciparum", "value": 0.09, "unit": "µM"},
      {"measurement": "IC50", "setting": "[3]; Plasmodium falciparum, P. falciparum strain Dd2, intraerythrocytic stages, read-out: IC50 (μM) Dd2", "value": 0.028, "unit": "µM"},
      {"measurement": "in vitro antimalarial activity relative to fosmidomycin", "setting": "[3]; inhibition of parasite growth, strain not named in the sentence (table: Dd2 and 3D7)", "value": "twelve-fold more active than fosmidomycin"},
      {"measurement": "in vitro antimalarial activity relative to FR900098", "setting": "[3]; strain not named in the sentence (table: Dd2 and 3D7)", "value": "exceeds the activity of FR900098"}
    ]},
    {"smiles": "N#Cc1ccc(C(CCN(O)C=O)P(=O)(O)O)cc1", "note": "(centres unmarked) [Compound 105, 3-[N-formyl,N-(hydroxy)amino]-1-(4-cyanophenyl)-propylphosphonic acid]", "values": [
      {"measurement": "activity in the Dd2 cell line with respect to the reference compounds fosmidomycin and FR900098", "setting": "[3]", "value": "substantial higher activity"}
    ]},
    {"smiles": "CC(=O)N(O)CCCP(=O)(O)O", "note": "[FR900098, reference compound]", "values": [
      {"measurement": "activity relative to fosmidomycin in Plasmodium vinckei mouse model", "setting": "Plasmodium vinckei", "value": "approximately twice more active than fosmidomycin"},
      {"measurement": "IC50", "setting": "[2]", "value": 0.32, "unit": "µM"},
      {"measurement": "IC50", "setting": "[3]; P. falciparum strain Dd2, intraerythrocytic stages, read-out: IC50 (μM) Dd2", "value": 0.18, "unit": "µM"},
      {"measurement": "activity relative to fosmidomycin against Plasmodium falciparum in vitro", "setting": "Plasmodium falciparum", "value": "approximately twice more active than fosmidomycin"}
    ]}
  ]
}
